Results taken from publication PMC7470110, “Design, synthesis, and in vitro evaluation of aza-peptide aldehydes and ketones as novel and selective protease inhibitors” (Journal of Enzyme Inhibition and Medicinal Chemistry, 2020).
Read-outs that look alike come from different tables or passages of the source. Peptide text beside a SMILES is read from it. * marks the point of attachment. Cbz = O=C(OCc1ccccc1)*

Columns and labels:
[1] = biological target: T1, β5 active site of the human 20S proteasome (Homo sapiens, UniProt P28074); test: Proteasome kinetic assay (β5 chymotrypsin-like active site); format: biochemical; details: substrate Suc-LLVY-AMC 100 µM
T1 construct: purchased Boston Biochem
Method: Human 20S proteasome, 700 KDa, was purchased from Boston Biochem (50 µg, 2 µM (1.4 mg/mL)) in 50 mM HEPES buffer (pH 7.6, 100 mM NaCl, 1 mM DTT). Assay buffer was prepared as follows: 20 mM HEPES buffer pH 7.8, 0.5 mM EDTA, 0.037% SDS. Proteasome specific substrate Suc-LLVY-AMC was purchased from Boston Biochem and used as a fluorogenic substrate; λex = 380 nm, λem = 442 nm. 18 µL of 2 µM proteasome solution was diluted with 425 µL H2O to make a 0.06 µM stock enzyme solution for kinetic assays. In a 96-well plate suitable for fluorometric assays was added 86 µL assay buffer, 2 µL inhibitor, 2 µL enzyme substrate, and 10 µL enzyme stock solution ([…] enzyme concentration in well). Fluorescence at 442 nM was monitored for 10 min. […] IC50 values were obtained from non-linear fitting of the data to a competitive inhibition model using GraphPad Prism 7.0 software. The proteasome β5 chymotrypsin-like active site activity assay was performed as previously described.

S. mansoni legumain = S. mansoni legumain (Schistosoma mansoni, UniProt P09841); test: Legumain kinetic assay (S. mansoni); format: biochemical; details: for IC50: substrate Cbz-AAN-AMC 50 µM, pH 5.5
Method: (§1) Schistosoma mansoni and Ixodes ricinus legumain zymogens were expressed in the yeast, Pichia pastoris, as described[36]^,[42]. Legumain kinetic assay details: zymogens were activated for 3 h (Ir) or overnight (Sm) at room temperature in 0.1 M Na-Ac pH 4.0; 5 mM DTT. Activities were measured in 0.1 M Na-Ac pH 5.5; 2.5 mM DTT, 0.1% PEG 6000 buffer. The substrate used was Cbz-AAN-AMC with 50 µM final concentration in the assay. Inhibitors were prepared in DMSO (1% DMSO in activity assay). Measurements were taken with an incubation period of 10 min at room temperature, and the enzyme activity was measured in triplicate. Asparaginyl Endopeptidase (AE) activity assay was performed as previously described.

I. ricinus legumain = I. ricinus legumain (Ixodes ricinus, UniProt Q6PRC7); test: Legumain kinetic assay (I. ricinus); format: biochemical
Method: as §1

[2] = cited from earlier work
human caspase-3 = biological target: T2, human caspase-3 (Homo sapiens, UniProt P42574); test: Caspase-3 kinetic assay; format: biochemical; details: substrate Ac-DEVD-AMC 0.1 mM, 37 °C
T2 construct: gift, Prof; Guy Salvesen's laboratory
T2 sequence (P42574 29-175 limits assumed): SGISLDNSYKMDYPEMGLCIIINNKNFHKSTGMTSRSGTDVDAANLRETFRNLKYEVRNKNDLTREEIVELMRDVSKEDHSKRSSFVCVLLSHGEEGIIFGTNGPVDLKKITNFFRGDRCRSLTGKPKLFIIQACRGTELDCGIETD
T2 sequence (P42574 176-277 limits assumed): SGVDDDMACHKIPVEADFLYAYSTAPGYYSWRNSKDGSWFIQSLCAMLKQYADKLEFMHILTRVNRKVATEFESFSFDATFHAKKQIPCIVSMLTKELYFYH
Method: (§2) Caspase-3 and caspase-6 were generous gifts from Prof. Guy Salvesen’s laboratory and then used at Ohio State University. Caspase activities were measured in 100 mM HEPES, 10% sucrose, 0.1% CHAPS, 10 mM DTT, pH 7.5 at 37 °C. To 5,000 µL of this buffer, 100 µL of freshly prepared 1 M DTT and 4,900 µL DI H2O were added resulting in the caspase assay buffer. Studies were performed at 37 °C.
Caspase-3 specific substrate Ac-DEVD-AMC was purchased from Cayman Chemical Company and used as fluorogenic substrate; λex = 353 nm, λem = 442 nm. 2 µL of 33 µM caspase-3 solution was diluted with 4998 µL caspase assay buffer to make a 13.2 nM enzyme stock solution. In a 96-well plate suitable for fluorometric assays, 80 µL assay buffer, 5 µL inhibitor, 5 µL enzyme substrate (0.1 mM), and 10 µL enzyme stock solution were added. Fluorescence at 442 nM was monitored for 10 min. The enzyme activity was measured in triplicate at varying concentrations of inhibitor (0, 25, 50, 100 µM in DMSO) and substrate (0.1 mM in DMSO) by converting the slope of the plot of fluorescence intensity at 442 nm vs time for the time points between 4 and 8 min using Beer-Lambert’s law. IC50 values were obtained from non-linear fitting of the data to a competitive inhibition model using GraphPad Prism 7.0 software.

human caspase-6 = biological target: T3, human caspase-6 (Homo sapiens, UniProt P55212); test: Caspase-6 kinetic assay; format: biochemical; details: for IC50: substrate Ac-VEID-AFC 0.1 mM, 37 °C
T3 construct: gift, Prof; Guy Salvesen's laboratory
T3 sequence (P55212 24-179 limits assumed): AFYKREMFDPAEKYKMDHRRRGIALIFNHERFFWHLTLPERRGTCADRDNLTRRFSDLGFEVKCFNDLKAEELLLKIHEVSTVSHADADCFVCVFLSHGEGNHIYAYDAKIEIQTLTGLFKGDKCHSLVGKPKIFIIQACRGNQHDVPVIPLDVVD
T3 sequence (P55212 194-293 limits assumed): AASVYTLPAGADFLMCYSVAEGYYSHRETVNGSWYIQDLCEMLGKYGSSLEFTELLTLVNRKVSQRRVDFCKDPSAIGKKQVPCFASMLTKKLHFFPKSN
Method: as §2
Caspase-6 specific substrate Ac-VEID-AFC was purchased from ChemCruz and used as a fluorogenic substrate; λex = 400 nm, λem = 505 nm. To 45 µL of assay buffer, 5 µL of the 19.7 µM enzyme was added. This resulting enzyme solution was further diluted 1:5 with assay buffer resulting in a 0.32 µM solution. In a 96-well plate suitable for fluorometric assays was added 80 µL assay buffer, 5 µL inhibitor, 5 µL enzyme substrate (0.1 mM), and 10 µL enzyme stock solution (32 nM enzyme concentration in well). The enzyme activity was measured in triplicate at varying concentrations of inhibitor (0, 25, 50, 100 µM in DMSO) and substrate (0.1 mM in DMSO) by converting the slope of the plot of fluorescence intensity at 442 nm vs time for the time points between 4 and 8 min using Lambert-Beer’s law. IC50 values were obtained from non-linear fitting of the data to a competitive inhibition model using GraphPad Prism 7.0 software.

proteasome = details: substrate Suc-LLVY-AMC, cited from earlier work; for Ki: read-out: previously reported Ki
[3] = biological target: calpains and various lysosomal cathepsins; set-up: method as in PMID 8087844; details: cited from earlier work
[4] = at the highest concentration tested (100 µM)

S. mansoni legumain, sequence (P09841 32-291): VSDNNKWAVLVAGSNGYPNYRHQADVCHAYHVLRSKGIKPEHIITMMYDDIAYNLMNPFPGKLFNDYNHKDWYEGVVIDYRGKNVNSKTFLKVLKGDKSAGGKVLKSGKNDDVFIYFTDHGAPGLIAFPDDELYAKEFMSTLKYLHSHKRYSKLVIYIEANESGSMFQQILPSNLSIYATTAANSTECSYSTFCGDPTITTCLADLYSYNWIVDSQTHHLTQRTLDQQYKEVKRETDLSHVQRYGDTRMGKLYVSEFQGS
I. ricinus legumain, sequence (Q6PRC7 37-328 limits assumed): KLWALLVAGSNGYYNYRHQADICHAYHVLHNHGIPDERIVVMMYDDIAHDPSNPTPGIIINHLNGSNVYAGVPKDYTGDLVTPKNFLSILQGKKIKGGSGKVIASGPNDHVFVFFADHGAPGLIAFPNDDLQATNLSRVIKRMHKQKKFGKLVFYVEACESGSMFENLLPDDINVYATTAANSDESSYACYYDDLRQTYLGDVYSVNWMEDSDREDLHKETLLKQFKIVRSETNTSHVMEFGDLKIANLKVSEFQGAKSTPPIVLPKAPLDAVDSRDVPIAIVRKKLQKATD

## CC(C)C[C@H](NC(=O)OCc1ccccc1)C(=O)N[C@@H](CC(C)C)C(=O)NN(CC(C)C)C(=O)C=O [Compound 3, Benzyl ((S)-1-(((S)-1–(2-isobutyl-2–(2-oxoacetyl)hydrazinyl)-4-methyl-1-oxopentan-2-yl)amino)-4-methyl-1-oxopentan-2-yl)carbamate]
[1]
  IC50: 9.02 ± 1.82 µM

## CC(=O)C(=O)N(CC(N)=O)NC(=O)[C@H](C)NC(=O)[C@H](C)NC(=O)OCc1ccccc1 [Compound 10, Benzyl ((S)-1-(((S)-1–(2–(2-amino-2-oxoethyl)-2-(2-oxopropanoyl)hydrazinyl)-1-oxopropan-2-yl)amino)-1-oxopropan-2-yl)carbamate]
S. mansoni legumain; [4]
  inhibition of S. mansoni legumain: did not show inhibition
S. mansoni legumain
  IC50: > 100 µM
I. ricinus legumain; [4]
  inhibition of I. ricinus legumain: did not show inhibition
I. ricinus legumain; substrate Cbz-AAN-AMC 50 µM, pH 5.5, read-out: IC50 I. ricinus
  IC50: > 100 µM

## CC(C)C[C@H](NC(=O)[C@H](Cc1ccccc1)NC(=O)c1cnccn1)B(O)O [bortezomib]
[2]; newly diagnosed multiple myeloma patients
  peripheral neuropathy, share of patients: up to 64%

## CC(=O)C(=O)N(CC(C)C)NC(=O)[C@H](CC(C)C)NC(=O)[C@H](CC(C)C)NC(=O)OCc1ccccc1 [Compound 4, Benzyl ((S)-1-(((S)-1–(2-isobutyl-2–(2-oxopropanoyl)hydrazinyl)-4-methyl-1-oxopentan-2-yl)amino)-4-methyl-1-oxopentan-2-yl)carbamate]
[1]
  IC50: 14.6 ± 2.39 µM

## CC(C)C[C@H](NC(=O)[C@H](CCc1ccccc1)NC(=O)CN1CCOCC1)C(=O)N[C@@H](Cc1ccccc1)C(=O)N[C@@H](CC(C)C)C(=O)[C@@]1(C)CO1 [Carfilzomib, carfilzomib]
[2]; treated patients
  adverse cardiovascular effects, share of patients: up to 30%

## CC[C@@H](C)[C@H](NC(=O)OCc1ccccc1)C(=O)N[C@@H](CCC(=O)O)C(=O)N[C@H](C(=O)NN(CC(=O)O)C(=O)C(C)=O)[C@H](C)O [Compound 8, (5S,8S,11S)-5-((R)-s-butyl)-8–(2-carboxyethyl)-11-((S)-1-hydroxyethyl)-3,6,9,12-tetraoxo-14–(2-oxopropanoyl)-1-phenyl-2-oxa-4,7,10,13,14-pentaazahexadecan-16-oic acid]
Human caspase-3
  IC50: 122 ± 83.3 µM
Human caspase-6; ratio of IC50 caspase-3 / caspase-6
  inhibits caspase-6 more effectively than caspase-3: 13 times
Human caspase-6
  IC50: 9.08 ± 3.02 µM

## CC(C)C[C@H](NC(=O)OCc1ccccc1)C(=O)N[C@@H](CC(C)C)C(=O)NN(CC(C)C)C(=O)C(=O)Cc1ccccc1 [Compound 5, Benzyl ((S)-1-(((S)-1–(2-isobutyl-2–(2-oxo-3-phenylpropanoyl)hydrazinyl)-4-methyl-1-oxopentan-2-yl)amino)-4-methyl-1-oxopentan-2-yl)carbamate]
[1]
  IC50: 10.1 ± 4.49 µM

## CCC[C@@H](C=O)NC(=O)[C@H](CC(C)C)NC(=O)[C@H](CC(C)C)NC(=O)OCc1ccccc1 [MG115, Cbz-Leu-Leu-Nle-CHO]
proteasome
  Ki: 0.021 µM

## CC(=O)C(=O)N(CC(=O)O)NC(=O)[C@@H](NC(=O)[C@H](CCC(=O)O)NC(=O)[C@H](CC(=O)O)NC(=O)OCc1ccccc1)C(C)C [Compound 6, (5S,8S,11S)-8–(2-Carboxyethyl)-5-(carboxymethyl)-11-isopropyl-3,6,9,12-tetraoxo-14–(2-oxopropanoyl)-1-phenyl-2-oxa-4,7,10,13,14-pentaazahexadecan-16-oic acid]
Human caspase-3
  IC50: 7.74 ± 1.88 µM
Human caspase-6
  IC50: 51.9 ± 10.6 µM

## CC(C)[C@H](NC(=O)[C@H](CCC(=O)O)NC(=O)[C@H](CC(=O)O)NC(=O)OCc1ccccc1)C(=O)NN(CC(=O)O)C(=O)C(=O)Cc1ccccc1 [Compound 7, (5S,8S,11S)-8–(2-Carboxyethyl)-5-(carboxymethyl)-11-isopropyl-3,6,9,12-tetraoxo-14–(2-oxo-3-phenylpropanoyl)-1-phenyl-2-oxa-4,7,10,13,14-pentaazahexadecan-16-oic acid]
Human caspase-3
  IC50: 13.4 ± 4.61 µM
Human caspase-6
  IC50: 64.2 ± 45.4 µM

## C[C@H](NC(=O)OCc1ccccc1)C(=O)N[C@@H](C)C(=O)NN(CC(N)=O)C(=O)C(=O)Cc1ccccc1 [Compound 11, Benzyl ((S)-1-(((S)-1–(2–(2-amino-2-oxoethyl)-2-(2-oxo-3-phenylpropanoyl)hydrazinyl)-1-oxopropan-2-yl)amino)-1-oxopropan-2-yl)carbamate]
S. mansoni legumain
  IC50: 22.2 ± 4.21 µM
I. ricinus legumain
  IC50: 17.8 ± 11.2 µM

## CC(C)C[C@@H](C=O)NC(=O)[C@H](CC(C)C)NC(=O)[C@H](CC(C)C)NC(=O)OCc1ccccc1 [MG132, Cbz-Leu-Leu-Leu-CHO] (Cbz-Leu-Leu-Leu-aldehyde)
proteasome
  previously reported Ki: few nanomolar
  Ki: 0.002 to 0.004 µM
[3]
  Ki: 0.005 to 0.012 µM
